IC50 data for 15 compounds are collected here from patent US11111243B2, “Azaindole compounds as histone methyltransferase inhibitors” (GLOBAL BLOOD THERAPEUTICS, INC., priority 2017, dated 2021).

SMILES strings stand for the structures. Counter-ions that a name gives are not always drawn.

This experiment has as its target T1, G9a (Homo sapiens, UniProt Q96KQ7).
T1 sequence (Q96KQ7 1-1210): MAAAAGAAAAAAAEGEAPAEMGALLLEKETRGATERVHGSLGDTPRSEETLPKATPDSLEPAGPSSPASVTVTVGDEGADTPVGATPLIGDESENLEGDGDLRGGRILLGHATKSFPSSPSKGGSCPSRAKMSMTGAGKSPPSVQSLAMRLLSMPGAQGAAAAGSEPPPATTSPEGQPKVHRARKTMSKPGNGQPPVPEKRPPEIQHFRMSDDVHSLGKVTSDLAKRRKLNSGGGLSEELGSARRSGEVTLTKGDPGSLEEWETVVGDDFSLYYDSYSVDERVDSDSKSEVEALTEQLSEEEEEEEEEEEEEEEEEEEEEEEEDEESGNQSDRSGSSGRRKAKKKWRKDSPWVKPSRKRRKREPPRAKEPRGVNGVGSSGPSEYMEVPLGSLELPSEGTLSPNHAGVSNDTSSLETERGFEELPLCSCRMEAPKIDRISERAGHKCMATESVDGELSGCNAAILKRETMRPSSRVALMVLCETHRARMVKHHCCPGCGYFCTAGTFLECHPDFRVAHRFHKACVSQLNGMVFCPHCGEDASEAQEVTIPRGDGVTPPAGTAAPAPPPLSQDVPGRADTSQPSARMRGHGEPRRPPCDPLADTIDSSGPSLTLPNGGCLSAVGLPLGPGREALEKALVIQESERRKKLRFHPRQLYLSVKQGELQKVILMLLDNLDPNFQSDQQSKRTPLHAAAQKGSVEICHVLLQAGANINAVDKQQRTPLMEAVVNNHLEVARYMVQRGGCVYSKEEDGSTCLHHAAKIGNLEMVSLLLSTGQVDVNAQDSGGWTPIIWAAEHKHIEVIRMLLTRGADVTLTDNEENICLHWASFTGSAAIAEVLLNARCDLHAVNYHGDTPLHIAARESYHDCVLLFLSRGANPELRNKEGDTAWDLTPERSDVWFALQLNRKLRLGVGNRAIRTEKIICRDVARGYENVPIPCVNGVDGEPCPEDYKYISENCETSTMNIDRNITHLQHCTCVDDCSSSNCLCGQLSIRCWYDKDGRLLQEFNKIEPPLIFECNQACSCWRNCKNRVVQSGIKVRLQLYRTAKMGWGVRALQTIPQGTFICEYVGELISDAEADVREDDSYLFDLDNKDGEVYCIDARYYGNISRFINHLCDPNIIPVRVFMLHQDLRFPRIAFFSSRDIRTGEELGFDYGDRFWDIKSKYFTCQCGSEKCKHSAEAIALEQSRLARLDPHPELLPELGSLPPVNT
The experiment in a line: G9a AlphaLISA enzymatic activity assay. Format: biochemical. The conditions noted are these: 0.15 nM G9a, 10 uM S-adenosyl-methionine, 100 nM biotinylated histone 3 peptide (1-21), 1 h room temperature. The source says: The G9a AlphaLISA assay was used to detect the methyl modifications of a biotinylated histone H3 peptide by the compounds. These modifications are done by the histone methyl transferase activity of the G9a enzyme. The assay consists of reading a chemiluminescent signal at 615 nm; this signal is generated by a laser excitation at 680 nm that transfers a reactive singlet oxygen between the donor beads and acceptor beads. Donor beads are streptavidin conjugated and bind to the biotin on the peptide. Acceptor beads are conjugated with an antibody that recognizes the specific G9a methyl mark on the peptide. If there is a methyl mark on the peptide, the acceptor beads will bind to the peptide. Upon binding, the acceptor beads will be in close proximity (<200 nm) of the donor beads and when the donor beads are excited, the transfer of the oxygen can occur and a strong signal will be generated. If there is no methyl mark, the interaction between beads will not occur and signal will be at background levels.
For the assay, the following buffer was used to set up reactions: 50 mM Tris-HCl pH9, 50 mM NaCl, 0.01% Tween-20 and 1 mM DTT (added fresh prior to starting the reactions). The assay is set up by adding a final concentration of 0.15 nM G9a, 10 uM S-adenosyl-methionine and, 100 nM biotinylated histone 3 peptide (1-21). The reaction is incubated at room temperature for 1 h, and subsequently quenched by the addition of the acceptor beads (anti-H3k9me2 AlphaLISA acceptor beads, PerkinElmer #AL117) at a final concentration of 20 ug/mL. The acceptor beads are incubated for 1 h. After 1 h, the donor beads are added at a final concentration of 20 ug/mL (Alpha Streptavidin donor beads, PerkinElmer #6760002). Donor beads are incubated for 0.5 h. Both donor and acceptor beads are resuspended in AlphaLISA 5× Epigenetics Buffer 1 Kit (PerkinElmer #AL008) prior to addition to the reaction. All manipulations and incubations with the donor and acceptor beads are done in subdued light. Signal is detected in an EnVision plate reader in Alpha mode (See ACS Med Chem Lett. 2014 Jan. 2; 5(2):205-9)
Percent inhibition was calculated for each compound dilution and the concentration that produced 50% inhibition was calculated. This value is presented as the IC50.

With `COc1cc2c(cc1OCCCN1CCCC1)[nH]c1cc(N)nc(C)c12` [Compound 10, 8-methoxy-1-methyl-7-[3-(pyrrolidin-1-yl)propoxy]-5H-pyrido[4,3-b]indol-3-amine], it took 4.5 nM to reach half-maximal inhibition (IC50). Compound `COc1cc2c(cc1OCCN(C)C)[nH]c1ccncc12` [Compound 70, [2-({8-methoxy-5H-pyrido[4,3-b]indol-7-yl}oxy)ethyl]dimethylamine hydrochloride] had an IC50 of 400 nM. In turn, `COc1cc2c(cc1OCCCN1CC[C@H](F)C1)[nH]c1ccnc(C3CC3)c12` [Compound 63, (3S)-1-[3-({1-cyclopropyl-8-methoxy-5H-pyrido[4,3-b]indol-7-yl}oxy)propyl]-3-fluoropyrrolidine hydrochloride] came in with a half-maximal inhibitory concentration (IC50) of 130 nM. On to `COc1cc2c(cc1OCCCN(C)C)[nH]c1ccnc(C3CCOCC3)c12` [Compound 68, (3-{[8-methoxy-1-(oxan-4-yl)-5H-pyrido[4,3-b]indol-7-yl]oxy}propyl)dimethylamine hydrochloride], for which the IC50 turned out to be 26 nM. The compound `COc1cc2c(cc1OCCCN(C)C)[nH]c1ccnc(C#CC(C)(C)O)c12` [Compound 48, 4-{7-[3-(dimethylamino)propoxy]-8-methoxy-5H-pyrido[4,3-b]indol-1-yl}-2-methylbut-3-yn-2-ol hydrochloride] yielded an IC50 of 1300 nM.

Compound `COc1cc2c(cc1OCCCN1CCCC1)[nH]c1ccnc(F)c12` [Compound 9, 1-[3-({1-fluoro-8-methoxy-5H-pyrido[4,3-b]indol-7-yl}oxy)propyl]pyrrolidine] showed an IC50 of 590 nM. The compound `CCN(CC)c1nccc2[nH]c3cc(OCCCN4CCCC4)c(OC)cc3c12` [Compound 85, N,N-diethyl-8-methoxy-7-[3-(pyrrolidin-1-yl)propoxy]-5H-pyrido[4,3-b]indol-1-amine bis formate] displayed an IC50 of 17 nM.

The compound `CCN(C)CCCOc1cc2[nH]c3ccnc(C4CC4)c3c2cc1OC` [Compound 46, [3-({1-cyclopropyl-8-methoxy-5H-pyrido[4,3-b]indol-7-yl}oxy)propyl](ethyl)methylamine hydrochloride] displayed an IC50 of 24 nM. With `COc1cc2c(cc1OCCCN1CCCC1)[nH]c1ccnc(N3CC(O)C3)c12` [Compound 18, 1-{8-methoxy-7-[3-(pyrrolidin-1-yl)propoxy]-5H-pyrido[4,3-b]indol-1-yl}azelidin-3-ol], the midpoint of inhibition, the IC50, lay at 12 nM. For the compound `COc1cc2c(cc1OCCCN(C)C)[nH]c1ccnc(C)c12` [Compound 90, [3-({8-methoxy-1-methyl-5H-pyrido[4,3-b]indol-7-yl}oxy)propyl]dimethylamine hydrochloride], the IC50 worked out at 7.1 nM.

Turning to `COc1cc2c(cc1OCCCN1CCCC1)[nH]c1cc(CO)ncc12` [Compound 79, {8-methoxy-7-[3-(pyrrolidin-1-yl)propoxy]-5H-pyrido[4,3-b]indol-3-yl}methanol trifluoroacetate], half-maximal inhibition (IC50) required 140 nM. Take `COc1c(OCCCN2CCCC2)ccc2c1[nH]c1cccnc12` [Compound 26, 1-[3-({6-methoxy-5H-pyrido[3,2-b]indol-7-yl}oxy)propyl]pyrrolidine hydrochloride]: it took 250 nM to reach half-maximal inhibition (IC50). In the case of `COc1cc2c(cc1OCCCN1CCCC1)[nH]c1ccnc(O)c12` [Compound 97, 8-methoxy-7-(3-(pyrrolidin-1-yl)propoxy)-5H-pyrido[4,3-b]indol-1-ol trifluoroacetate], half-maximal inhibition (IC50) required 68 nM. `COc1cc2c(cc1OCCCN1CCCC1)[nH]c1ccnc(C3CC3)c12` [Compound 43, 1-[3-({1-cyclopropyl-8-methoxy-5H-pyrido[4,3-b]indol-7-yl}oxy)propyl]pyrrolidine] registered an IC50 of 1.3 nM. As for `COc1cc2c(cc1OCCCN1CC[C@@H](F)C1)[nH]c1ccnc(C3CC3)c12` [Compound 62, (3R)-1-[3-({1-cyclopropyl-8-methoxy-5H-pyrido[4,3-b]indol-7-yl}oxy)propyl]-3-fluoropyrrolidine hydrochloride], the figure is 53 nM.
